One experiment concerns the target T1, HDAC6 (Homo sapiens, UniProt Q9UBN7).
T1 sequence (Q9UBN7 1-1215): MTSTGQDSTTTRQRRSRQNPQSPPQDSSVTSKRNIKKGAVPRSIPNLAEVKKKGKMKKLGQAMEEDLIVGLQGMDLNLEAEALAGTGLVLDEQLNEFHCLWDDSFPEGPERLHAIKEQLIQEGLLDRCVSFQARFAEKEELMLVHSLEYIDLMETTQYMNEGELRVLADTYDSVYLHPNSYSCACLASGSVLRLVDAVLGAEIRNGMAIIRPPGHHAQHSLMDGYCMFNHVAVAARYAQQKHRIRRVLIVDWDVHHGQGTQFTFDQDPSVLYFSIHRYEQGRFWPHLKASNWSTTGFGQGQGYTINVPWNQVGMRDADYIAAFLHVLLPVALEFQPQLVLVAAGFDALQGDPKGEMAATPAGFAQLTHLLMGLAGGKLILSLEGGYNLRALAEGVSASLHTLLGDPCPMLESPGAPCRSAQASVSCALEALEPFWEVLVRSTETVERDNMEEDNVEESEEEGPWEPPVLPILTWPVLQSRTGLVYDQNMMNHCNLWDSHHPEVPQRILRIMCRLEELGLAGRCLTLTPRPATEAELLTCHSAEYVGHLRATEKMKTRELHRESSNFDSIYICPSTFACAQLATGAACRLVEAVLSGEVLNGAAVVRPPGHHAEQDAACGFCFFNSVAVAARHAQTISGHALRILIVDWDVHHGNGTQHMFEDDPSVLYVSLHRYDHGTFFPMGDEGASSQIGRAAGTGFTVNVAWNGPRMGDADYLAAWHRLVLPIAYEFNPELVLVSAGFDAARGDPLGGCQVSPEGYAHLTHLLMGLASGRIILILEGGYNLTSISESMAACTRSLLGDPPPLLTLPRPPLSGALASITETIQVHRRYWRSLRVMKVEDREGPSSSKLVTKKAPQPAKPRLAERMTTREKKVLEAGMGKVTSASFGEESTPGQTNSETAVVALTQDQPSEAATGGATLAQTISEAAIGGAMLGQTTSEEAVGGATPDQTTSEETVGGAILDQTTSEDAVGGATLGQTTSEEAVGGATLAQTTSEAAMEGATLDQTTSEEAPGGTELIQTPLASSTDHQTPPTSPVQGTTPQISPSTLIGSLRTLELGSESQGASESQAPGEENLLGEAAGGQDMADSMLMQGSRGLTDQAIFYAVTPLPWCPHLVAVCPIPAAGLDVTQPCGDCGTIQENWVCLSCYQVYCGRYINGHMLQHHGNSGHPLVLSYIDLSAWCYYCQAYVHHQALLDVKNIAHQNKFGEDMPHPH
The experiment in a line: HDAC inhibitory activity, fluorescence-coupled acetylated peptide substrate assay. It is filed as biochemical. The note with it: Table 2.
T2 sequence (Q13547 whole entry): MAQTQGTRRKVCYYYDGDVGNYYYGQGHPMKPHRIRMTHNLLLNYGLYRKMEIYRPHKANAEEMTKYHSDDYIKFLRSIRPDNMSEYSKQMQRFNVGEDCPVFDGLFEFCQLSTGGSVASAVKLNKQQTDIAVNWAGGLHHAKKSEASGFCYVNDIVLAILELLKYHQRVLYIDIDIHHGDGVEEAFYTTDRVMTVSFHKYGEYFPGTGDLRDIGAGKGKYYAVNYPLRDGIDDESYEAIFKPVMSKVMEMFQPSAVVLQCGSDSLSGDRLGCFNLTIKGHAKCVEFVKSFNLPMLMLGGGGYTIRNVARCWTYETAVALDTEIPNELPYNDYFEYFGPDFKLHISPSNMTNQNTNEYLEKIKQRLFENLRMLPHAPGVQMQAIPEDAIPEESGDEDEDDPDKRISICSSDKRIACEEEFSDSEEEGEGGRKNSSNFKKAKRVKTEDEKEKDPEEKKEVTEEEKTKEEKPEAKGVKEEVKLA
In the case of `Cc1nc(N(C)c2cccc(OCC(=O)NO)c2)c2ccccc2n1` [III-12, N-hydroxy-2-(3-(methyl(2-methyl-4-quinazolinyl)amino)phenoxy)acetamide], the IC50 lay within 10 to 100 nM.

For `Cc1nc(N(C)c2cccc(OCCCC(=O)NO)c2)c2ccccc2n1` [III-13, N-hydroxy-4-(3-(methyl(2-methyl-4-quinazolinyl)amino)phenoxy)butanamide], the IC50 was 100 to 1000 nM.

Take `Cc1nc(N(C)c2cccc(OCCCCC(=O)NO)c2)c2ccccc2n1` [III-14, N-hydroxy-5-(3-(methyl(2-methyl-4-quinazolinyl)amino)phenoxy)pentanamide]: the IC50 is 100 to 1000 nM.

The next experiment relates to Human cervical cancer cell Hela. The experiment in a line: Cell proliferative activity (MTT / cck-8). It is filed as cell-based. The note with it: incubated for 96 hours, read-out: Half-Inhibitory Concentration IC50 Human cervical cancer cell Hela. The method, then:
(§1) Tumor cell line A375: human melanoma cell; H460: lung adenocarcinoma cell; Hela: human cervical cancer cell; HepG2: human liver cancer cell; and SKOV-3: human ovarian cancer cell, were all purchased from ATCC and cultured to logarithmic phase according to the cultivation protocol recommended by ATCC. The cells in the logarithmic phase were plated onto a 96-well plate at 2000-3000 cells/well; in the case of adherent cells, the cells should be adherent to the wall. […] After that, the cell proliferative activity was determined by MTT assay for the tumor cells representing the solid tumor model and by cck-8 assay for the tumor cells representing the hematologic tumor model.
Turning to `Cc1nc(N(C)c2cccc(OCC(=O)NO)c2)c2ccccc2n1` [III-12, N-hydroxy-2-(3-(methyl(2-methyl-4-quinazolinyl)amino)phenoxy)acetamide], the IC50 was 100 to 1000 nM.

Take `Cc1nc(N(C)c2cccc(OCCCC(=O)NO)c2)c2ccccc2n1` [III-13, N-hydroxy-4-(3-(methyl(2-methyl-4-quinazolinyl)amino)phenoxy)butanamide]: the IC50 lay in the range of 100 to 1000 nM.

As for `Cc1nc(N(C)c2cccc(OCCCCC(=O)NO)c2)c2ccccc2n1` [III-14, N-hydroxy-5-(3-(methyl(2-methyl-4-quinazolinyl)amino)phenoxy)pentanamide], the IC50 fell in the range of 10 to 100 nM.

Another experiment deals with Human lung cancer cell H460. The experiment in a line: Cell proliferative activity (MTT / cck-8). It is filed as cell-based. As to conditions: NCI-H460, incubated for 96 hours, read-out: Half-Inhibitory Concentration IC50 Human lung cancer cell H460. The method, then: as §1
Turning to `Cc1nc(N(C)c2cccc(OCC(=O)NO)c2)c2ccccc2n1` [III-12, N-hydroxy-2-(3-(methyl(2-methyl-4-quinazolinyl)amino)phenoxy)acetamide], the IC50 fell in the range of 100 to 1000 nM.

With `Cc1nc(N(C)c2cccc(OCCCC(=O)NO)c2)c2ccccc2n1` [III-13, N-hydroxy-4-(3-(methyl(2-methyl-4-quinazolinyl)amino)phenoxy)butanamide], the IC50 fell in the range of 100 to 1000 nM.

Take `Cc1nc(N(C)c2cccc(OCCCCC(=O)NO)c2)c2ccccc2n1` [III-14, N-hydroxy-5-(3-(methyl(2-methyl-4-quinazolinyl)amino)phenoxy)pentanamide]: the IC50 was in the range of 100 to 1000 nM.

For another experiment, the system named is Human ovarian cancer cell SKOV-3. Description: Cell proliferative activity (MTT / cck-8). The format is cell-based. The note with it: SK-OV-3, incubated for 96 hours, read-out: Half-Inhibitory Concentration IC50 Human ovarian cancer cell SKOV-3. The method, then: as §1
Regarding `Cc1nc(N(C)c2cccc(OCC(=O)NO)c2)c2ccccc2n1` [III-12, N-hydroxy-2-(3-(methyl(2-methyl-4-quinazolinyl)amino)phenoxy)acetamide], the IC50 fell in the range of 100 to 1000 nM.

Regarding `Cc1nc(N(C)c2cccc(OCCCC(=O)NO)c2)c2ccccc2n1` [III-13, N-hydroxy-4-(3-(methyl(2-methyl-4-quinazolinyl)amino)phenoxy)butanamide], the IC50 lay within 10 to 100 nM.

For the compound `Cc1nc(N(C)c2cccc(OCCCCC(=O)NO)c2)c2ccccc2n1` [III-14, N-hydroxy-5-(3-(methyl(2-methyl-4-quinazolinyl)amino)phenoxy)pentanamide], the IC50 lay in the range of 10 to 100 nM.

A further experiment has as its system Human melanoma A375. The experiment in a line: Cell proliferative activity (MTT / cck-8). The note with it: A-375, incubated for 96 hours, read-out: Half-Inhibitory Concentration IC50 Human melanoma A375. The format is cell-based. As to the method:
as §1
As to `Cc1nc(N(C)c2cccc(OCC(=O)NO)c2)c2ccccc2n1` [III-12, N-hydroxy-2-(3-(methyl(2-methyl-4-quinazolinyl)amino)phenoxy)acetamide], the IC50 was above 1000 nM.

For the compound `Cc1nc(N(C)c2cccc(OCCCC(=O)NO)c2)c2ccccc2n1` [III-13, N-hydroxy-4-(3-(methyl(2-methyl-4-quinazolinyl)amino)phenoxy)butanamide], the IC50 is 100 to 1000 nM.

With `Cc1nc(N(C)c2cccc(OCCCCC(=O)NO)c2)c2ccccc2n1` [III-14, N-hydroxy-5-(3-(methyl(2-methyl-4-quinazolinyl)amino)phenoxy)pentanamide], the IC50 fell in the range of 100 to 1000 nM.

A further experiment relates to Human liver cancer cell HepG2. The experiment in a line: Cell proliferative activity (MTT / cck-8). The format is cell-based. The note with it: incubated for 96 hours, read-out: Half-Inhibitory Concentration IC50 Human liver cancer cell HepG2. As to the method: as §1
`Cc1nc(N(C)c2cccc(OCC(=O)NO)c2)c2ccccc2n1` [III-12, N-hydroxy-2-(3-(methyl(2-methyl-4-quinazolinyl)amino)phenoxy)acetamide]: the IC50 is 100 to 1000 nM.

Regarding `Cc1nc(N(C)c2cccc(OCCCC(=O)NO)c2)c2ccccc2n1` [III-13, N-hydroxy-4-(3-(methyl(2-methyl-4-quinazolinyl)amino)phenoxy)butanamide], the IC50 lay within 10 to 100 nM.

In the case of `Cc1nc(N(C)c2cccc(OCCCCC(=O)NO)c2)c2ccccc2n1` [III-14, N-hydroxy-5-(3-(methyl(2-methyl-4-quinazolinyl)amino)phenoxy)pentanamide], the IC50 was in the range of 10 to 100 nM.

The next experiment addresses T2, HDAC1 (Homo sapiens, UniProt Q13547).
T2 construct: purchased BPS Bioscience
Description: HDAC inhibitory activity, fluorescence-coupled acetylated peptide substrate assay (Lys-Ac-AMC). It is filed as biochemical. As to conditions: Table 2.
Description: The HDAC inhibitory activity was determined by fluorescence-coupled acetylated peptide substrate assay (Lys-Ac-AMC). HDAC1 protein was purchased from BPS Bioscience, and the reaction buffer system was a modified tris(hydroxymethyl)aminomethane buffer (pH 7.0). The small molecule compounds of the present invention were prepared by being dissolved in 100% DMSO. HDAC was prepared in a buffer at a certain concentration as an enzyme solution; trypsin and fluorescent group 4-amino-7-coumarin coupled-acetylated peptide (Ac-peptide) substrate were prepared in a buffer at a certain concentration as a substrate solution. The compounds were added into the reaction wells in a 384-well plate at a designed concentration of 10 μM, 1 μM, 0.5 μM, 0.1 μM, 0.05 μM, 0.01 μM, 0.005 μM, 0.001 μM, and 0.00005 μM, respectively, and then 15 μl of the HDAC solution was added into the reaction wells (15 μl of blank buffer to the control well). […] The results were analyzed by GraphPad Prism software and IC50 values were calculated according to the formula: Y=Background Data+(Top Data−Background Data)/(1+10^((Log IC50−X) a curve slope)), where Y: the inhibition rate (%) and X: the concentration of the compound.
As to `Cc1nc(N(C)c2cccc(OCC(=O)NO)c2)c2ccccc2n1` [III-12, N-hydroxy-2-(3-(methyl(2-methyl-4-quinazolinyl)amino)phenoxy)acetamide], the IC50 lay within 100 to 1000 nM.

As to `Cc1nc(N(C)c2cccc(OCCCC(=O)NO)c2)c2ccccc2n1` [III-13, N-hydroxy-4-(3-(methyl(2-methyl-4-quinazolinyl)amino)phenoxy)butanamide], the IC50 is 100 to 1000 nM.

On to `Cc1nc(N(C)c2cccc(OCCCCC(=O)NO)c2)c2ccccc2n1` [III-14, N-hydroxy-5-(3-(methyl(2-methyl-4-quinazolinyl)amino)phenoxy)pentanamide], for which the IC50 is 100 to 1000 nM.

For a further experiment, the target named is T3, HDAC8 (Homo sapiens, UniProt Q9BY41).
T3 sequence (Q9BY41 1-377): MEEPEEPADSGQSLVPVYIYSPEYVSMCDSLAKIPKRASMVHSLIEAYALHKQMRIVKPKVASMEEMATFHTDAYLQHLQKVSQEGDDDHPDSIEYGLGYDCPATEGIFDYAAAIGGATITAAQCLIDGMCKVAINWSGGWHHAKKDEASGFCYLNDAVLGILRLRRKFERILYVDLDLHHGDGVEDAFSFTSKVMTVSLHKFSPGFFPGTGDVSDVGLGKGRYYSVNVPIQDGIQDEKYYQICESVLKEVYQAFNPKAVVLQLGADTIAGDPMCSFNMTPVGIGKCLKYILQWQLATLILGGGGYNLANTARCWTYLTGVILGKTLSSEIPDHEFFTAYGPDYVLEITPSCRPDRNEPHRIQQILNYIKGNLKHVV
Description: HDAC inhibitory activity, fluorescence-coupled acetylated peptide substrate assay. The note with it: IC50 HDAC8, Table 2.
As for `Cc1nc(N(C)c2cccc(OCC(=O)NO)c2)c2ccccc2n1` [III-12, N-hydroxy-2-(3-(methyl(2-methyl-4-quinazolinyl)amino)phenoxy)acetamide], the IC50 was above 1000 nM.

With `Cc1nc(N(C)c2cccc(OCCCC(=O)NO)c2)c2ccccc2n1` [III-13, N-hydroxy-4-(3-(methyl(2-methyl-4-quinazolinyl)amino)phenoxy)butanamide], the IC50 was above 1000 nM.

As for `Cc1nc(N(C)c2cccc(OCCCCC(=O)NO)c2)c2ccccc2n1` [III-14, N-hydroxy-5-(3-(methyl(2-methyl-4-quinazolinyl)amino)phenoxy)pentanamide], the IC50 was above 1000 nM.

The values are drawn from US10532053B2, “Histone deacetylase inhibitor, and preparation method and use thereof” (GUANGDONG ZHONGSHENG PHARMACEUTICAL CO., LTD, priority 2015, dated 2020).
